Assay results published in patent publication US20240083885A1, “COMPOSITIONS AND METHODS FOR INHIBITING M PRO PROTEASE ACTIVITY AND FOR PREVENTING AND TREATING SARS-COV-2 INFECTION” (priority 2020, published 2024).
Where two headings read alike, the source gives them in different places.

What was measured:
SARS-CoV-2 [1] = test: microbe, parasite or virus in culture; type: cell-based; details: read-out: antiviral EC50 against SARS-CoV-2 in Vero E6 cells
Cathepsin B = Cathepsin B (Homo sapiens (Human), UniProt P07858); test: Host protease FRET-based enzymatic assay: cathepsin B; type: biochemical
Description: (§1) Enzymatic reactions against host proteases (Calpain I, Cathepisn K, Cathespsin L, Caspase-3 and Trypisn) were carried out as previously described (see, Xia, Z.; et al., ACS Pharmacol. Transl. Sci. 2021). Cathepsin B assay reaction was carried out as follows: Cathepsin B (catalog no. CTB-H5222) was diluted into 100 nM final concentration in a buffer containing 20 mM sodium acetate pH5.5, 1 mM EDTA and 2 mM DTT and the mixture was incubated for 30 min at 30° C. Activated Cathepsin B was further diluted to 500 pm in the reaction buffer (100 mM MES pH6.0, 1 mM EDTA, 2 mM DTT and 0.01% TWEEN 20).

cathepsin K = cathepsin K (Homo sapiens (Human), UniProt P43235); type: biochemical
cathepsin K, sequence (P43235 115-329 limits assumed): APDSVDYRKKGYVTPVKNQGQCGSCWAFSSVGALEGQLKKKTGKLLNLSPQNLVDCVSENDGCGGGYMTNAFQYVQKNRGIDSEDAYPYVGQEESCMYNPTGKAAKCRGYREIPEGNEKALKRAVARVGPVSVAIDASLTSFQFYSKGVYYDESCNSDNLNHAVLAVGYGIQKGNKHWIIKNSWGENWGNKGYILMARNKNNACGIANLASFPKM

trypsin = test: Host protease FRET-based enzymatic assay: trypsin; type: biochemical; details: read-out: inhibition of trypsin (IC50)
calpain I [2] = biological target: T1, calpain I (Homo sapiens (Human), UniProt P07384); test: Host protease FRET-based enzymatic assay: calpain I; type: biochemical
Description: as §1

Cathepsin L [3] = biological target: T2, Cathepsin L (Homo sapiens (Human), UniProt P07711); details: read-out: Cathepsin L IC50; cited from earlier work
T2 sequence (P07711 114-333 limits assumed): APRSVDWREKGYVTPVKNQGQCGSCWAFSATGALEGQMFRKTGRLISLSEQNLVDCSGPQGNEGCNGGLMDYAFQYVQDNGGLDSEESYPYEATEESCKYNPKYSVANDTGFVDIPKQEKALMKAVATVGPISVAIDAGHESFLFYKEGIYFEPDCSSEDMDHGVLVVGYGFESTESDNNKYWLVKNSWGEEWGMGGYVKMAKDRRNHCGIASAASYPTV

Cathepsin L [4] = biological target: T2, Cathepsin L; test: Host protease FRET-based enzymatic assay: cathepsin L; type: biochemical
Description: The cathepsin L enzymatic assay was carried out as follows: human liver cathepsin L (EMD Millipore 219402) was activated by incubating at reaction buffer (20 mM sodium acetate, 1 mM EDTA and 5 mM DTT pH5.5) for 30 min at 30° C. Upon activation, the assay was assembled in 96-well plates with 100 μl of 300 pM cathepsin L protein in cathepsin L reaction buffer. Then 1 μl testing compound at various concentrations was added to each well and incubated at 30° C. for 30 min. The enzymatic reaction was initiated by adding 1 μl of 100 μM FRET substrate Z-Phe-Arg-AMC (the final substrate concentration is about 1 μM). The reaction was monitored in a Cytation 5 image reader with filters for excitation at 360/40 nm and emission at 460/40 nm at 30° C. for 1 hr. The IC50 values were calculated as described in above section.
as §1

caspase-3 = caspase-3 (Homo sapiens (Human), UniProt P42574); test: Host protease FRET-based enzymatic assay: caspase-3; type: biochemical; details: read-out: inhibition of caspase-3 (IC50)
caspase-3, sequence (P42574 29-175 limits assumed): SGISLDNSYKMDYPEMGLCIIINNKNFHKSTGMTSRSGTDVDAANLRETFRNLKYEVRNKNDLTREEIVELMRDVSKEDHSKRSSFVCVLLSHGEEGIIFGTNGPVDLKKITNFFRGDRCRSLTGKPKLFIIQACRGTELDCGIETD
caspase-3, sequence (P42574 176-277 limits assumed): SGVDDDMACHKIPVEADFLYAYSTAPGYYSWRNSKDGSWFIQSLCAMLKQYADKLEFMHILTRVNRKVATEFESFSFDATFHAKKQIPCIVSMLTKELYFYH
Description: as §1

calpain I [5] = biological target: T1, calpain I; details: read-out: Additional off targets: Calpain I IC50; cited from earlier work
SARS-CoV-2 [6] = test: microbe, parasite or virus in culture; type: cell-based; details: Caco2-hACE2 cells; read-out: antiviral EC50 against SARS-CoV-2 in Caco2-hACE2 cells

Structure (SMILES): CC(C)C[C@H](NC(=O)OCc1ccccc1)C(=O)N[C@@H](CC1CCNC1=O)C(O)S(=O)(=O)[O-].[Na+] (some centres unmarked) [GC-376, reference compound]
- CC50 (Vero E6 cells): > 125000 nM
- EC50 (SARS-CoV-2 [1]): 1510 nM
- inhibition of cathepsin B (Cathepsin B): potent inhibition
- inhibition of cathepsin K (cathepsin K): potent inhibition
- inhibition of calpain I (calpain I [2]): potent inhibition
- IC50 (Cathepsin L [3]): 0.99 nM
- inhibition of cathepsin L (IC50) (Cathepsin L [4]): potent inhibition
- IC50 (caspase-3): > 20000 nM
- IC50 (calpain I [5]): 74 nM
- EC50 (SARS-CoV-2 [6]): 2900 nM
